This passage reports IC50 results from patent US20240382475A1, “Quinazoline Derivative, Or Preparation Method Therefor And Use Thereof” (Zhejiang Hisun Pharmaceutical Co., Ltd., priority 2021, published 2024).

One assay addresses T1, KRAS-G12C/SOS1 (Homo sapiens, UniProt Q07889).
T1 construct: purchased Cisbio 63ADK000CB16PEG
T1 sequence (Q07889 1-1333): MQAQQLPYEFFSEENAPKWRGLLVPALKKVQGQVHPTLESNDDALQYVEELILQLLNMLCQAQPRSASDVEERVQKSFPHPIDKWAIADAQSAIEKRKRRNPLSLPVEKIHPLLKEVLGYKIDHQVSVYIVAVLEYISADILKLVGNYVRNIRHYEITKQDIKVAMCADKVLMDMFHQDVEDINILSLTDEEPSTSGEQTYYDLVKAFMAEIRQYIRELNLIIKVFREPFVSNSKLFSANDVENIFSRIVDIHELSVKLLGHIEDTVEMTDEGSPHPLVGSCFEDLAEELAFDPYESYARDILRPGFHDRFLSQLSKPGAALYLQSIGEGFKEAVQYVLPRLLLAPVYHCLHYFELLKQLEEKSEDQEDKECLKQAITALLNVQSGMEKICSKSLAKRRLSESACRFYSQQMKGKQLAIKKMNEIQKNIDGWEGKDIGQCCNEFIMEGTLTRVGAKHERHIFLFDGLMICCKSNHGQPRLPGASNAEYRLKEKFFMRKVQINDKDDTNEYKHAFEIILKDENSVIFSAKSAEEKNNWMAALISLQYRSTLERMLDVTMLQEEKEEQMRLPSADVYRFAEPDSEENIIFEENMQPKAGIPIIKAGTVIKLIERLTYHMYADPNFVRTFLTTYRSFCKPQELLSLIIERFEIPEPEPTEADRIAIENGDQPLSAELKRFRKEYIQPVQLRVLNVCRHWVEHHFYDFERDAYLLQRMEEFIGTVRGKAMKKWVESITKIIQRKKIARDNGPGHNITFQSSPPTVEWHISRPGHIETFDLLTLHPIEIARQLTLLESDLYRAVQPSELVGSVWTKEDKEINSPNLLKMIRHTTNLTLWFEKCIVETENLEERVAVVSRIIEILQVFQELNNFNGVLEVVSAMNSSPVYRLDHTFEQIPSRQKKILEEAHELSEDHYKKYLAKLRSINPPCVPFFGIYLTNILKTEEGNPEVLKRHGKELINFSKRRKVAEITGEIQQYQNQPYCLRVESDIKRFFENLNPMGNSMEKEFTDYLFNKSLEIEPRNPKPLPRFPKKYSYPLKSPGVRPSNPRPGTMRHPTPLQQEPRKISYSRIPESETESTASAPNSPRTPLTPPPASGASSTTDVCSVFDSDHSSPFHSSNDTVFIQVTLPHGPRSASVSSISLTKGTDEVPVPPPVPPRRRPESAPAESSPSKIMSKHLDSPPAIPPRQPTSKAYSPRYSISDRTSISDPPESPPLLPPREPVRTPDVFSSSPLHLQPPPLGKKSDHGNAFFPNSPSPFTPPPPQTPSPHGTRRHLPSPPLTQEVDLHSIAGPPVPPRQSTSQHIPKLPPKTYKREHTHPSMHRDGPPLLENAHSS
Briefly: Blocking the binding of KRAS G12C protein to SOS1 (Cisbio KRAS-G12C/SOS1 binding assay kit, TR-FRET). To be noted: Tag1-SOS1 and Tag2-KRAS-G12C, TR-FRET 665/620; read-out: IC50 (nM) Inhibition of KRAS-G12C/SOS1 binding. The text has this:
The following method was used to determine the abilities of compounds of the invention to block the interaction of SOS1 with the KRAS G12C protein in vitro. KRAS-G12C/SOS1 BINDING ASSAY KITS (Art. No. 63ADK000CB16PEG) from Cisbio was used in this method. Please refer to the kit instruction for detailed experimental operations.
The experimental process can be briefly described as follows: diluent buffer (Art. No. 62DLBDDF) was used to prepare a working solution with a concentration of 5× for Tag1-SOS1 and Tag2-KRAS-G12C protein. The test compounds were dissolved in DMSO to prepare storage solutions of 10 mM, and then the solutions were diluted with dilution buffer for later use. First, 2 μL of the test compound (the final concentrations of the reaction system were 10000 nM-0.1 nM) was added to the well, then 4 μL of Tag1-SOS1 5× working solution and 4 μL of Tag2-KRAS-G12C 5× working solution were added, and the above mixture was centrifuged, mixed, and stood for 15 minutes; then 10 μL of premixed anti-Tag1-Tb^3+ and anti-Tag2-XL665 were added, and the mixture was incubated at room temperature for 2 hours; finally, a microplate reader was used in […] mode to measure the fluorescence intensity of each well emitting wavelengths of 620 nm and […] under the excitation wavelength of 304 nm, and the fluorescence intensity ratio 665/620 in each well was calculated. Compared with the fluorescence intensity ratio of a control group (0.1% DMSO), the percentage inhibition rates of the test compounds at each concentration were calculated, and the IC50 values of the compounds were obtained by performing nonlinear regression analysis with logarithmic values of the compound concentration-inhibition rate by GraphPad Prism 5 software, which was shown in Table 1.
In general terms: In TR-FRET formats the signal depends on donor and acceptor labels being close together.

The next assay deals with OCI-AML5 cells. Briefly: Inhibition of OCI-AML5 cell proliferation (CellTiter-Glo). Type of assay: cell-based. To be noted: Homo sapiens, OCI-AML-5; OCI-AML5 cells (SOS1 N233Y mutation), 120 hours. In a few lines: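 OCI-AML5 cells (SOS1 N233Y), 1,000 per well, treated after overnight culture with compound at final 10000 nM to 0.15 nM for 120 hours at 37° C, 5% CO2. Viability read by CellTiter-Glo luminescence.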
On the technique in general: Cellular ATP, detected with luciferase, serves as a proxy for viable cell number.

SMILES strings stand for the structures.

On to `COc1cc2nc(C)nc(N[C@H](C)c3cccc(C#N)c3C)c2cc1N1CCOCC1` [Compound 1, (R)-3-(1-((7-methoxy-2-methyl-6-morpholinoquinazolin-4-yl)amino)ethyl)-2-methylbenzonitrile], for which the IC50 on KRAS-G12C/SOS1 came out at 26.2 nM; with OCI-AML5 cells, 46.4 nM.

For `COc1cc2nc(C)nc(N[C@H](C)c3cccc(C#N)c3C)c2cc1N1CCN(C(C)=O)CC1` [Compound 2, (R)-3-(1-((6-(4-acetylpiperazin-1-yl)-7-methoxy-2-methylquinazolin-4-yl)amino)ethyl)-2-methylbenzonitrile], the figures for the IC50 at KRAS-G12C/SOS1 and in the assay with OCI-AML5 cells were 20.7 nM and 8.4 nM, respectively.

As to `COc1cc2nc(C)nc(N[C@H](C)c3cccc(C#N)c3C)c2cc1N1CCC2(CCOCC2)CC1` [Compound 4, (R)-3-(1-((7-methoxy-2-methyl-6-(3-oxa-9-azaspiro[5.5]undecan-9-yl)quinazolin-4-yl)amino)ethyl)-2-methylbenzonitrile], the IC50 on KRAS-G12C/SOS1 came to 65.2 nM; in the assay with OCI-AML5 cells, 6.3 nM.

Turning to `COc1cc2nc(C)nc(N[C@H](C)c3cccc(C#N)c3C)c2cc1N1CCC2(CC1)COC2` [Compound 5, (R)-3-(1-((7-methoxy-2-methyl-6-(2-oxa-7-azaspiro[3.5]nonan-7-yl)quinazolin-4-yl)amino)ethyl)-2-methylbenzonitrile], the IC50 came to 28 nM on KRAS-G12C/SOS1 and 11.3 nM with OCI-AML5 cells.

For `COc1cc2nc(C)nc(N[C@H](C)c3cccc(C#N)c3C)c2cc1N1CCC2(CCN(C)C2=O)CC1` [Compound 7, (R)-3-(1-((7-methoxy-2-methyl-6-(2-methyl-1-oxo-2,8-diazaspiro[4.5]decan-8-yl)quinazolin-4-yl)amino)ethyl)-2-methylbenzonitrile], the IC50 at KRAS-G12C/SOS1 amounted to 35.7 nM; in the assay with OCI-AML5 cells, 2.7 nM.

Consider `COc1cc2nc(C)nc(N[C@H](C)c3cccc(C#N)c3C)c2cc1N1CCC(C#N)CC1` [Compound 8, (R)-1-(4-((1-(3-cyano-2-methylphenyl)ethyl)amino)-7-methoxy-2-methylquinazolin-6-yl)piperidine-4-carbonitrile], for which the IC50 came to 62 nM at KRAS-G12C/SOS1 and 12 nM with OCI-AML5 cells.

For `COc1cc2nc(C)nc(N[C@H](C)c3cccc(C#N)c3C)c2cc1N1CCC(C)(O)CC1` [Compound 11, (R)-3-(1-((6-(4-hydroxy-4-methylpiperidin-1-yl)-7-methoxy-2-methylquinazolin-4-yl)amino)ethyl)-2-methylbenzonitrile], the IC50 at KRAS-G12C/SOS1 came out at 39.5 nM; in the assay on OCI-AML5 cells it was 13.6 nM.

With `COc1cc2nc(C)nc(N[C@H](C)c3cccc(C#N)c3C)c2cc1N1CCC2(CC1)CN(C(C)=O)C2` [Compound 19, (R)-3-(1-((6-(2-acetyl-2,7-diazaspiro[3.5]nonan-7-yl)-7-methoxy-2-methylquinazolin-4-yl)amino)ethyl)-2-methylbenzonitrile], the IC50 on KRAS-G12C/SOS1 amounted to 22.3 nM; in the assay with OCI-AML5 cells it was 16.4 nM.
